From the supplement of paper PMC10627819

Columns and labels:
S. aureus Newman = assay: fitness (endpoint OD595 vs no drug) (fraction); higher = more growth
Method in brief: (§1)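 Fitness was measured as bacterial growth in 384-well plates inoculated at OD595 0.01 (30 µl, or 55 µl for S. pneumoniae). Media were TSB, LB Lennox or CY, at 37 °C. OD595 was read every 30 min for 14 h and background-subtracted against the first reading. Fitness is OD595 at the transition into stationary phase divided by the robust mean of no-drug control wells, capped at 1.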

B. subtilis 168 = assay: as above
Method in brief: as §1
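Further: OD595 on entry to stationary phase over no-drug wells; at most 1.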

O=C(N[C@H](CO)[C@H](O)c1ccc([N+](=O)[O-])cc1)C(Cl)Cl [Chloramphenicol] + CC1(C)S[C@@H]2[C@H](NC(=O)Cc3ccccc3)C(=O)N2[C@H]1C(=O)O [Penicillin G]
fitness, S. aureus Newman
Settings | first compound 0.75 µg/mL | first compound 1.5 µg/mL | first compound 3 µg/mL
partner 0.0195 µg/mL | 0.744 | 0.494 | 0.187
partner 0.039 µg/mL | 0.742 | 0.475 | 0.173
partner 0.078 µg/mL | 0.72 | 0.477 | 0.181

O=C(N[C@H](CO)[C@H](O)c1ccc([N+](=O)[O-])cc1)C(Cl)Cl [Chloramphenicol] + CC1=C(C(=O)O)N2C(=O)[C@@H](NC(=O)[C@H](N)c3ccccc3)[C@H]2SC1 [Cephalexin]
fitness, S. aureus Newman
Settings | partner 0.25 µg/mL | partner 0.5 µg/mL | partner 1 µg/mL
first compound 0.75 µg/mL | 0.792 | 0.891 | 0.908
first compound 3 µg/mL | – | 0.312 | –

O=C(N[C@H](CO)[C@H](O)c1ccc([N+](=O)[O-])cc1)C(Cl)Cl [Chloramphenicol] + CO/N=C(\C(=O)N[C@@H]1C(=O)N2C(C(=O)O)=C(COC(N)=O)CS[C@H]12)c1ccco1 [Cefuroxime]
fitness, S. aureus Newman, one replicate
Settings | first compound 0.75 µg/mL | first compound 1.5 µg/mL | first compound 3 µg/mL
partner 0.04875 µg/mL | 0.808 | 0.377 | –
partner 0.0975 µg/mL | 0.697 | 0.312 | 0.0949
partner 0.195 µg/mL | 0.64 | 0.206 | 0.065

O=C(N[C@H](CO)[C@H](O)c1ccc([N+](=O)[O-])cc1)C(Cl)Cl [Chloramphenicol] + O=C(O)[C@H]1/C(=C/CO)O[C@@H]2CC(=O)N21 [Clavulanic acid]
fitness, S. aureus Newman, one replicate
Settings | first compound 0.75 µg/mL | first compound 1.5 µg/mL | first compound 3 µg/mL
partner 0.03125 µg/mL | 0.891 | 0.7 | 0.0864
partner 0.0625 µg/mL | 0.889 | 0.708 | –
partner 0.125 µg/mL | 0.85 | 0.494 | 0.11

CCC[C@@H]1C[C@@H](C(=O)N[C@@H]([C@H]2O[C@H](SC)[C@H](O)[C@@H](O)[C@H]2O)[C@H](C)Cl)N(C)C1 [Clindamycin] + CC1(C)S[C@@H]2[C@H](NC(=O)Cc3ccccc3)C(=O)N2[C@H]1C(=O)O [Penicillin G]
fitness, S. aureus Newman
Settings | first compound 0.0312 µg/mL | first compound 0.0625 µg/mL | first compound 0.125 µg/mL
partner 0.0195 µg/mL | 0.639 | 0.416 | 0.0886
partner 0.039 µg/mL | 0.708 | – | 0.0624
partner 0.078 µg/mL | – | – | 0.0543

N[C@@H]1CONC1=O [Cycloserine D] + C/C(=C\C(=O)OCCCCCCCCC(=O)O)C[C@@H]1OC[C@H](C[C@@H]2O[C@H]2[C@@H](C)[C@H](C)O)[C@@H](O)[C@H]1O [Pseudomonic acid]
fitness, S. aureus Newman, one replicate
Settings | first compound 0.375 µg/mL | first compound 0.75 µg/mL | first compound 1.5 µg/mL
partner 0.0313 µg/mL | 0.0489 | 0.0331 | 0.0484
partner 0.0625 µg/mL | 0.0296 | 0.0319 | 0.0149
partner 0.125 µg/mL | 0.0371 | 0.0384 | 0.031

N[C@@H]1CONC1=O [Cycloserine D] + CC1(C)S[C@@H]2[C@H](NC(=O)Cc3ccccc3)C(=O)N2[C@H]1C(=O)O [Penicillin G]
fitness, S. aureus Newman
Settings | first compound 0.375 µg/mL | first compound 0.75 µg/mL | first compound 1.5 µg/mL
partner 0.0195 µg/mL | 0.966 | 0.916 | 0.892
partner 0.039 µg/mL | 0.922 | 0.932 | 0.957
partner 0.078 µg/mL | 0.886 | 0.923 | 0.854

N[C@@H]1CONC1=O [Cycloserine D] + CCC(C)C1C(=O)NC(=C)C(=O)NC(C(=O)NC(CSCC(C(=O)N1)NC(=O)/C(=C/C)/NC(=O)C(C(C)CC)N)C(=O)NC2C(SCC(NC(=O)CNC(=O)C3CCCN3C2=O)C(=O)NC(CCCCN)C(=O)NC4C(SCC(NC(=O)CNC(=O)C(NC(=O)C(NC(=O)C(NC(=O)CNC4=O)C)CC(C)C)CCSC)C(=O)NC(CC(=O)N)C(=O)NC(CCSC)C(=O)NC(CCCCN)C(=O)NC5C(SCC6C(=O)NC(C(=O)NC(CSC(C(C(=O)N6)NC(=O)C(NC5=O)C)C)C(=O)NC(CO)C(=O)NC(C(C)CC)C(=O)NC(CC7=CN=CN7)C(=O)NC(C(C)C)C(=O)NC(=C)C(=O)NC(CCCCN)C(=O)O)CC8=CN=CN8)C)C)C)CC(C)C [Nisin]
fitness, B. subtilis 168, main component drawn
Settings | first compound 0.125 µg/mL | first compound 0.25 µg/mL | first compound 0.5 µg/mL
partner 0.5 µg/mL | 0.926 | 0.867 | 0.878
partner 1 µg/mL | 0.888 | 0.824 | 0.81
partner 2 µg/mL | 0.589 | 0.601 | 0.606

fitness, B. subtilis 168, one replicate, main component drawn
Settings | partner 1.25 µg/mL | partner 1.6 µg/mL | partner 2.5 µg/mL | partner 3.2 µg/mL | partner 4 µg/mL | partner 5 µg/mL | partner 6.4 µg/mL | partner 8 µg/mL | partner 16 µg/mL
first compound 0.125 µg/mL | ≥ 1 | 0.654 | 0.708 | 0.0215 | 0.0688 | 0.137 | 0.0306 | 0.0472 | 0.0248
first compound 0.25 µg/mL | ≥ 1 | 0.681 | 0.698 | 0.0139 | 0.0497 | 0.0686 | 0.0459 | 0.0297 | 0.0048
first compound 0.5 µg/mL | 0.985 | 0.721 | 0.341 | 0.0205 | 0.041 | 0.0366 | 0.017 | 0.0245 | 0.0169

N[C@@H]1CONC1=O [Cycloserine D] + CN(C)C(=O)C(CCN1CCC(O)(c2ccc(Cl)cc2)CC1)(c1ccccc1)c1ccccc1 [Loperamide]
fitness, B. subtilis 168
Settings | first compound 0.125 µg/mL | first compound 0.25 µg/mL | first compound 0.5 µg/mL
partner 50 µg/mL | 0.0169 | 0.0651 | 0.0491
partner 100 µg/mL | 0.0259 | 0.0243 | 0.0094

N[C@@H]1CONC1=O [Cycloserine D] + CO[C@@H]1[C@@H](OC(N)=O)[C@@H](O)[C@H](Oc2ccc3c(O)c(NC(=O)c4ccc(O)c(CC=C(C)C)c4)c(=O)oc3c2C)OC1(C)C [Novobiocin]
fitness, B. subtilis 168
Settings | first compound 0.125 µg/mL | first compound 0.25 µg/mL | first compound 0.5 µg/mL
partner 0.0125 µg/mL | 0.987 | 0.943 | 0.922
partner 0.025 µg/mL | 0.957 | 0.957 | 0.913
partner 0.05 µg/mL | ≥ 1 | 0.994 | 0.992

fitness, B. subtilis 168, one replicate
Settings | partner 0.1 µg/mL | partner 0.125 µg/mL | partner 0.2 µg/mL | partner 0.25 µg/mL | partner 0.5 µg/mL
first compound 0.125 µg/mL | 0.906 | 0.871 | 0.921 | 0.908 | 0.605
first compound 0.25 µg/mL | 0.995 | 0.962 | ≥ 1 | 0.852 | 0.632
first compound 0.5 µg/mL | ≥ 1 | 0.967 | 0.952 | 0.958 | 0.544

N[C@@H]1CONC1=O [Cycloserine D] + C[C@H]1COc2c(N3CCN(C)CC3)c(F)cc3c(=O)c(C(=O)O)cn1c23 [Levofloxacin]
fitness, B. subtilis 168, one replicate
Settings | first compound 0.125 µg/mL | first compound 0.25 µg/mL | first compound 0.5 µg/mL
partner 0.001 µg/mL | 0.979 | 0.973 | 0.987
partner 0.0078 µg/mL | 0.898 | 0.863 | 0.968

fitness, B. subtilis 168
Settings | partner 0.002 µg/mL | partner 0.0039 µg/mL | partner 0.0312 µg/mL | partner 0.0625 µg/mL | partner 0.125 µg/mL
first compound 0.125 µg/mL | 0.93 | 0.92 | 0.0375 | 0.0466 | 0.0546
first compound 0.25 µg/mL | 0.921 | 0.902 | 0.0356 | 0.0536 | 0.0482
first compound 0.5 µg/mL | 0.965 | 0.995 | 0.0328 | 0.0466 | 0.0559

N[C@@H]1CONC1=O [Cycloserine D] + C[C@H]1c2cccc(O)c2C(=O)C2=C(O)[C@]3(O)C(=O)C(C(N)=O)=C(O)[C@@H](N(C)C)[C@@H]3[C@@H](O)[C@@H]21 [Doxycycline]
fitness, B. subtilis 168
Settings | first compound 0.125 µg/mL | first compound 0.25 µg/mL | first compound 0.5 µg/mL
partner 0.02 µg/mL | 0.909 | 0.903 | 0.898
partner 0.04 µg/mL | 0.738 | 0.732 | 0.709
